Measurements from ChEMBL document CHEMBL5506035, “Discovery of Glutamate Carboxypeptidase III Ligands to Compete the Uptake of [177Lu]Lu-PSMA-617 in Healthy Organs” (J Med Chem, 2024).
pKd: −log10 of the molar value. The source made the active and inactive calls. The calls are words filed in the database; no cut-off is given here.

How the values were obtained:
[1] = target: T1, Glutamate carboxypeptidase 2 (Homo sapiens, UniProt Q04609); assay: Binding affinity to human recombinant PSMA assessed as dissociation constant by fluorescence polarization assay
Target sequence in this assay (Q04609 whole entry): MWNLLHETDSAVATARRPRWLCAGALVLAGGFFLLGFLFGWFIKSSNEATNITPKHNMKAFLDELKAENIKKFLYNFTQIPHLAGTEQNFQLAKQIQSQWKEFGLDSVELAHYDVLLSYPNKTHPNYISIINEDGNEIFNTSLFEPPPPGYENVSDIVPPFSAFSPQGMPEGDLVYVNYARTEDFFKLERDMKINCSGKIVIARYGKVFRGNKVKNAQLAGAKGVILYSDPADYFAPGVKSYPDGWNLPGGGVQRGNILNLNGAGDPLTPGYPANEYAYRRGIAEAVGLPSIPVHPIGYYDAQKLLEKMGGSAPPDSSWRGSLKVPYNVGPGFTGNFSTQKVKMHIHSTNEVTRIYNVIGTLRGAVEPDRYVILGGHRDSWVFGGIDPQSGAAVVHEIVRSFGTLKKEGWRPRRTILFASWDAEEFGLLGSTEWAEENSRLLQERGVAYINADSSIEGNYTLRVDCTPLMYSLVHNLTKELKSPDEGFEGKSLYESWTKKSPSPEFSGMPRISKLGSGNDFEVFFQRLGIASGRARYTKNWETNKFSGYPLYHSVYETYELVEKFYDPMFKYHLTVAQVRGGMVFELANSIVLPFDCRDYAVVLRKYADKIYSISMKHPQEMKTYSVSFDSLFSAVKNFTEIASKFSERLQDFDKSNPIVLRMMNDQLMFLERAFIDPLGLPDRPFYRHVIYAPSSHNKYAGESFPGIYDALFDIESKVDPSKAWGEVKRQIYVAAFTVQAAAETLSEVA

[2] = target: Albumin (Homo sapiens, UniProt P02768); assay: Binding affinity to human serum albumin by fluorescence polarization assay
Chain of Albumin (Homo sapiens, UniProt P02768) (P02768 whole entry): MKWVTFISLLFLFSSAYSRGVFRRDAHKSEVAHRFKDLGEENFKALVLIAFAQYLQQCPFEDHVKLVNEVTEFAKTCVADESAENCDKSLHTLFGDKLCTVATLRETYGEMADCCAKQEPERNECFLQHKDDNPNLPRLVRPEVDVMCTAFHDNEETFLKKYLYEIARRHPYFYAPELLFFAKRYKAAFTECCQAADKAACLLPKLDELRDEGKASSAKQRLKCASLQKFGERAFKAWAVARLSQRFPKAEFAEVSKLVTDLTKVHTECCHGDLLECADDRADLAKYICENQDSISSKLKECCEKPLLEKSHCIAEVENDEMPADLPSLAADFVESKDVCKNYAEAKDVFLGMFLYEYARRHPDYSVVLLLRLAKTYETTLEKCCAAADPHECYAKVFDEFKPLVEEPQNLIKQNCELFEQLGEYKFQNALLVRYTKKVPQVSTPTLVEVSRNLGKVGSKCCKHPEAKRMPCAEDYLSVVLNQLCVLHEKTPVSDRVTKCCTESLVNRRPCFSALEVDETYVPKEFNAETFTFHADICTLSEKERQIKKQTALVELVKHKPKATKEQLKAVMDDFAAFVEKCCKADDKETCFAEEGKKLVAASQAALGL

[3] = target: Stromelysin-1 (Homo sapiens) (UniProt P08254); assay: Binding affinity to MMP3 (unknown origin) by fluorescence polarization assay
Chain of Stromelysin-1 (Homo sapiens) (P08254 100-477 limits assumed): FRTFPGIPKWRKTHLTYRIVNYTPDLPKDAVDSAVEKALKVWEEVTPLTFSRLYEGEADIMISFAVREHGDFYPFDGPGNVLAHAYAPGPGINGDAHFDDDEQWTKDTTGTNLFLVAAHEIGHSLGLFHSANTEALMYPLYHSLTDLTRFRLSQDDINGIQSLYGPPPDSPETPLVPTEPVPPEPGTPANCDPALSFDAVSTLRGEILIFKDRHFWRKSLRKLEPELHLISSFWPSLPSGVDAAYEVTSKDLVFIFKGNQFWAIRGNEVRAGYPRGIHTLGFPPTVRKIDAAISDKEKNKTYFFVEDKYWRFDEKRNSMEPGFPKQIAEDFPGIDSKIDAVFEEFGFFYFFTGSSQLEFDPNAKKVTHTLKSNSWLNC

[4] = target: Albumin (Rattus norvegicus, UniProt P02770); assay: Binding affinity to rat serum albumin by fluorescence polarization assay
Chain of Albumin (Rattus norvegicus, UniProt P02770) (P02770 whole entry): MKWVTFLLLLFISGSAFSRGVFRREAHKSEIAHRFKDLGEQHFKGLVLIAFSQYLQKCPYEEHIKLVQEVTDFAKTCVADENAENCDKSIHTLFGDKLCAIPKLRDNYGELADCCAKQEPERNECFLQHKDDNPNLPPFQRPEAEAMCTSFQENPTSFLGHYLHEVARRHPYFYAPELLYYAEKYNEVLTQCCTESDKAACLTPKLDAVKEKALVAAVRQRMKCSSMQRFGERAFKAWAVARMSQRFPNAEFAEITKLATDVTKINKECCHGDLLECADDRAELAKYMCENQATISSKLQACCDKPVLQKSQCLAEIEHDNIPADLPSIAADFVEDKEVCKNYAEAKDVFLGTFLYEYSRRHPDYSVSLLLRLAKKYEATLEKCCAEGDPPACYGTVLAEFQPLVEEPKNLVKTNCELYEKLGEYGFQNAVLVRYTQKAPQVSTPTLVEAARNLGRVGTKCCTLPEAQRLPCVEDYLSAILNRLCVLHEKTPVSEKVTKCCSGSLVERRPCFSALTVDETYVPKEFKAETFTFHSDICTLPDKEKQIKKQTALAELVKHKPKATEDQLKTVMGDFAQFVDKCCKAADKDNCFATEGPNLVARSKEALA

[5] = target: T2, Prolyl endopeptidase FAP (Homo sapiens, UniProt Q12884); assay: Binding affinity to human FAP assessed as dissociation constant by fluorescence polarization assay
T2 sequence (Q12884 whole entry): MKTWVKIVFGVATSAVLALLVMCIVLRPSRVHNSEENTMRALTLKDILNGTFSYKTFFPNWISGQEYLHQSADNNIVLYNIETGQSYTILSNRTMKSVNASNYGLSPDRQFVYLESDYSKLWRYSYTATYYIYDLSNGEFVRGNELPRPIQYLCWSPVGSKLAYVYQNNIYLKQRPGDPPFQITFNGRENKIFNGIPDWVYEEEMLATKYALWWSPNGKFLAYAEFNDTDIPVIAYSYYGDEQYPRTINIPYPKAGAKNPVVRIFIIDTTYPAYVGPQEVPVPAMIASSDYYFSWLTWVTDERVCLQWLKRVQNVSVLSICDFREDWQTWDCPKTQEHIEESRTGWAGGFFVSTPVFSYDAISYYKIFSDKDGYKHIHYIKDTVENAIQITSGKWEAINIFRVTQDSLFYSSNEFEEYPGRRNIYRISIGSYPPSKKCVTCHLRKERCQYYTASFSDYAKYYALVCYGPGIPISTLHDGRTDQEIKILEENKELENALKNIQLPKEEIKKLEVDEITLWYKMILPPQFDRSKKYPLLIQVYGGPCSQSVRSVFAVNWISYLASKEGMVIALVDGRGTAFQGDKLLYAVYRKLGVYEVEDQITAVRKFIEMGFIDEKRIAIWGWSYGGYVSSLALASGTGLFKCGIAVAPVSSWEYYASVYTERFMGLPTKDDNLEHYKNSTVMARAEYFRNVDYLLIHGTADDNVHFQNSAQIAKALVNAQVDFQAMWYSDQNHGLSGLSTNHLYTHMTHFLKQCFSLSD

[6] = target: T1, Glutamate carboxypeptidase 2; assay: Displacement of [177Lu]LU-PSMA-617 from PSMA in human salivary gland assessed as residual activity at 10 uM incubated for 1 hr by autoradiography analysis relative to control; format: tissue-based
Target sequence in this assay (Q04609 whole entry, looked up): as the sequence (Q04609 whole entry) above

[7] = target: Natural cytotoxicity triggering receptor 1 (Homo sapiens, UniProt O76036); assay: Binding affinity to NKp46 (unknown origin) assessed as dissociation constant by fluorescence polarization assay
Chain of Natural cytotoxicity triggering receptor 1 (O76036 whole entry): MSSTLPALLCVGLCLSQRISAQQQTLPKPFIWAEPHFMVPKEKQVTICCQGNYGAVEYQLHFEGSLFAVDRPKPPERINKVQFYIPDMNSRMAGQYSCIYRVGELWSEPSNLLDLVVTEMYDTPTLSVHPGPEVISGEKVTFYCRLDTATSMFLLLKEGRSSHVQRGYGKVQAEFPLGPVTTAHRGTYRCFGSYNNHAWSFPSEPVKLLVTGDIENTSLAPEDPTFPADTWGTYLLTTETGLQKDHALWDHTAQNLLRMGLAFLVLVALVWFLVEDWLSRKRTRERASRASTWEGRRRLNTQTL

[8] = species on record: Homo sapiens; assay: Ratio of Kd for binding affinity to human recombinant GCPIII assessed as dissociation constant by fluorescence polarization assay to Kd for binding affinity to human recombinant PSMA assessed as dissociation constant by fluorescence polarization assay
[9] = target: T3, Prolyl endopeptidase FAP (Mus musculus, UniProt P97321); assay: Binding affinity to mouse FAP assessed as dissociation constant by fluorescence polarization assay
T3 sequence (P97321 whole entry): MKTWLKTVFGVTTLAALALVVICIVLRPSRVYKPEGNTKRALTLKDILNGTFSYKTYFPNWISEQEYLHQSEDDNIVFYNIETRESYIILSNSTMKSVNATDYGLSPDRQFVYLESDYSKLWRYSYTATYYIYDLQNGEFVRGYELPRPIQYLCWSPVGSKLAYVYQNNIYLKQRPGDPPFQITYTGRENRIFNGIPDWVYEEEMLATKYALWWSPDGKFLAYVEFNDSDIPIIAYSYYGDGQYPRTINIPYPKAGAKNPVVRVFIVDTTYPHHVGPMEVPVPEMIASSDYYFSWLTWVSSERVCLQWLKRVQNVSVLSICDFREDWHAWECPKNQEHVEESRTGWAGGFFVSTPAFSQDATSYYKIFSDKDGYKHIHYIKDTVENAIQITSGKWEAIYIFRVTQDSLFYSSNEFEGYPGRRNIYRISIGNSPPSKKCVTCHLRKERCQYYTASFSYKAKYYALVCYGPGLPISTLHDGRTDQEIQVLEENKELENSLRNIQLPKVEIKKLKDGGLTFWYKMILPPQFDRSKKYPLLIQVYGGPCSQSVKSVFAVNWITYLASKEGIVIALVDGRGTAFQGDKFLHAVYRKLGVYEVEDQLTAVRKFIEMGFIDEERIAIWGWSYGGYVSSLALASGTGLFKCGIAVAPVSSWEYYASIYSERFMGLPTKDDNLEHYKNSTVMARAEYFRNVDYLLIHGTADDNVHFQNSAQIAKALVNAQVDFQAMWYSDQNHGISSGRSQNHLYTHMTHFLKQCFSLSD

[10] = target: Urokinase-type plasminogen activator (Homo sapiens, UniProt P00749); assay: Binding affinity to Urokinase (unknown origin) assessed as dissociation constant by fluorescence polarization assay
[11] = target: N-acetylated-alpha-linked acidic dipeptidase 2 (Homo sapiens, UniProt Q9Y3Q0); assay: Binding affinity to human recombinant GCPIII assessed as dissociation constant by fluorescence polarization assay
Chain of N-acetylated-alpha-linked acidic dipeptidase 2 (Q9Y3Q0 whole entry): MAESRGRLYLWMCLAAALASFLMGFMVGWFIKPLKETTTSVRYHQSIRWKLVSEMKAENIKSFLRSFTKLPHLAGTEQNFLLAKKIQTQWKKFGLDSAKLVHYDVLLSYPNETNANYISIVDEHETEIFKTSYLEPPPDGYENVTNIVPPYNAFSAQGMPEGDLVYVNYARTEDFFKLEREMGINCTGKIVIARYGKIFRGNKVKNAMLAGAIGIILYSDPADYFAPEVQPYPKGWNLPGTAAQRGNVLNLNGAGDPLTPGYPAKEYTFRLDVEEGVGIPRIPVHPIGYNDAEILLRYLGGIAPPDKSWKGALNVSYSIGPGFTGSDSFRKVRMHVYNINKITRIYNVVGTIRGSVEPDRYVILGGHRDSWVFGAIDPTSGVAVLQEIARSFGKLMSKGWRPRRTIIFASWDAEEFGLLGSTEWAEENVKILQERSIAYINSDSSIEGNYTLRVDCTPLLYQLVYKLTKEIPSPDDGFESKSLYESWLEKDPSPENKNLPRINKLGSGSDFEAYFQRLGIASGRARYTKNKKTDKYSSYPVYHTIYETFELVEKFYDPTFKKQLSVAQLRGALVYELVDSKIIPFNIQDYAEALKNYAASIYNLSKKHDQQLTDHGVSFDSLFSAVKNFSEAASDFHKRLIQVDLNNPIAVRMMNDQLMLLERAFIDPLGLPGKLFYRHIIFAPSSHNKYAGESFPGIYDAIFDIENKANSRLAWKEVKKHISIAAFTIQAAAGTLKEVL

[12] = target: Albumin (Bos taurus, UniProt P02769); assay: Binding affinity to bovine serum albumin by fluorescence polarization assay
Chain of Albumin (Bos taurus, UniProt P02769) (P02769 whole entry): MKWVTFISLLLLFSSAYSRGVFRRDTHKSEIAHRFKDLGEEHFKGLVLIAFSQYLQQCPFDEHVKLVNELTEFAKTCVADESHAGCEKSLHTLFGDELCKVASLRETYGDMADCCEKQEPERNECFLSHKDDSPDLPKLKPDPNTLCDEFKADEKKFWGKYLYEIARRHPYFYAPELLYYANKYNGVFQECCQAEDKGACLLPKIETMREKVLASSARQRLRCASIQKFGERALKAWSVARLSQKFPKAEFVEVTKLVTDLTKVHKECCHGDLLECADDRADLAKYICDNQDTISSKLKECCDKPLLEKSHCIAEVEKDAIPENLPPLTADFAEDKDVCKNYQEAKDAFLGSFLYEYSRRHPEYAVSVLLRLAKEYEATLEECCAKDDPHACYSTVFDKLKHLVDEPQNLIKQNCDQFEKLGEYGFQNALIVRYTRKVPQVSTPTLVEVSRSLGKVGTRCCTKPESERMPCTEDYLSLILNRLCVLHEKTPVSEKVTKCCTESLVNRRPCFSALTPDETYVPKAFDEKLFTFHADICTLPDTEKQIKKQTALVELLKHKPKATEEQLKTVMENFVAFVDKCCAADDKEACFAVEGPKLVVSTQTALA

[13] = target: Albumin (Macaca fascicularis, UniProt A2V9Z4); assay: Binding affinity to cynomolgus serum albumin by fluorescence polarization assay; details: cynomolgus monkey
Chain of Albumin (Macaca fascicularis, UniProt A2V9Z4) (A2V9Z4 whole entry): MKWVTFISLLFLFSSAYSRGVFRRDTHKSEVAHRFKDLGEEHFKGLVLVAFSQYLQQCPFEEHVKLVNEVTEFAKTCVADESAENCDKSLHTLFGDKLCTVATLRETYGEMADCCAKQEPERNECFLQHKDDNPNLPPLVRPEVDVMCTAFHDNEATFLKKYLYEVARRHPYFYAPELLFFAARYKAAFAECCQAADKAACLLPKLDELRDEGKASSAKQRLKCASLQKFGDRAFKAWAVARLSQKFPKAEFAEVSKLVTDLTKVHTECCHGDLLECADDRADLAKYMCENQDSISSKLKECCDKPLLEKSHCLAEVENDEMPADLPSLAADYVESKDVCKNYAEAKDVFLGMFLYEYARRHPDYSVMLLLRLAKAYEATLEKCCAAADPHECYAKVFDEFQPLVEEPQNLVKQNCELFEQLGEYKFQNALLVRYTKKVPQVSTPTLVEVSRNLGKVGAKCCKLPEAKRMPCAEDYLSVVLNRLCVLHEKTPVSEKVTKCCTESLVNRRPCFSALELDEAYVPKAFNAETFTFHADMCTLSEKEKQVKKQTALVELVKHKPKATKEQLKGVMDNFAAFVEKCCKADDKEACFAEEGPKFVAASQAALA

[14] = Binding affinity to IL-9 receptor (unknown origin) assessed as dissociation constant by fluorescence polarization assay; design: species or system Homo sapiens
[15] = target: Interleukin-15 (Homo sapiens, UniProt P40933); assay: Binding affinity to IL-15 (unknown origin) assessed as dissociation constant by fluorescence polarization assay
Chain of Interleukin-15 (P40933 whole entry): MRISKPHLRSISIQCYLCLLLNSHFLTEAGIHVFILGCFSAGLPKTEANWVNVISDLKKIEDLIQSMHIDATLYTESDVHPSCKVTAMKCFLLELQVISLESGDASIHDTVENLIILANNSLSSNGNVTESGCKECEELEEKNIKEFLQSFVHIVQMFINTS

[16] = target: Carbonic anhydrase 2 (Homo sapiens) (UniProt P00918); assay: Binding affinity to Carbonic anhydrase II (unknown origin) by fluorescence polarization assay
[17] = target: Immunoglobulin heavy constant gamma 4 (Homo sapiens) (UniProt P01861); assay: Binding affinity to IgG4 (unknown origin) by fluorescence polarization assay
[18] = target: Albumin (Oryctolagus cuniculus, UniProt P49065); assay: Binding affinity to rabbit serum albumin by fluorescence polarization assay

pKd [1]: < 8.70 | Activity [2]: Not Active | Activity [3]: inactive | Activity [4]: Not Active | pKd [5]: < 5.82 | Activity [6]: 39% | Ratio [8]: 100 | pKd [9]: < 6.15 | pKd [10]: < 5.02 | pKd [11]: 7.85 | pKd [12]: 5.35 | Activity [13]: Not Active | pKd [14]: < 5.12 | pKd [15]: < 5.30 | Activity [16]: inactive | Activity [17]: inactive | Activity [18]: Not Active
Compound: O=C(N[C@@H]1C[C@@H](C(=O)N[C@@H](CCCCNC(=S)Nc2ccc3c(c2)C(=O)OC32c3ccc(O)cc3Oc3cc(O)ccc32)C(=O)O)N(C(=O)c2cnoc2C2CC2)C1)c1c[nH]nn1
pKd [7]: < 5.48
